The values that follow come from patent US7947732B2, “Therapeutic substituted chlorocyclopentanols” (Allergan, Inc., priority 2007, dated 2011).

Where a name gives a salt, the structure may show the parent alone. Read-outs that look alike come from different tables or passages of the source.

Data set [1] concerns the target T1, EP2 (Homo sapiens, UniProt P43116). Kind of data set: EP2 binding (KI). An excerpt:
(§1) U.S. patent application Ser. No. 11/553,143, filed on Oct. 26, 2006, now issued as U.S. Pat. No. 7,427,685 incorporated by reference herein, describes the methods used to obtain the in vitro data in the tables below.

In data set [2] the target is T1, EP2. Kind of data set: EP2 cAMP assay. The class given is cell-based.
From the text: as §1
Background: Cyclic AMP is a second messenger, typically raised through Gs and lowered through Gi signalling.

Data set [3] has as its target T2, EP4 (Homo sapiens, UniProt P35408). Kind of data set: EP4 binding (KI).
From the text: as §1

A further data set deals with T3, hEP3A (Homo sapiens, UniProt P43115).
T3 sequence (P43115 1-390): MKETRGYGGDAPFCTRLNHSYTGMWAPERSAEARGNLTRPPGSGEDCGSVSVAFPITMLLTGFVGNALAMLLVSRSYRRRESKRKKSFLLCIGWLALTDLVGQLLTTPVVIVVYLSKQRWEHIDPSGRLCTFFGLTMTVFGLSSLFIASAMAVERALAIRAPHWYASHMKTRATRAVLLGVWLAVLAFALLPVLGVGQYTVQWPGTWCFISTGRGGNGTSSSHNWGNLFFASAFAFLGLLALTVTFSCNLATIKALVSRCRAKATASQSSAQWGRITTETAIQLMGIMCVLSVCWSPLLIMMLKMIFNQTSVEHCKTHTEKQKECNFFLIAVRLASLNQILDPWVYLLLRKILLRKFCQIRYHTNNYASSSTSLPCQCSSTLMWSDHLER
The data set can be described thus: Other receptors functional EC50: hEP3A. The class given is cell-based.
From the text: as §1

Data set [4] concerns the target T2, EP4. Kind of data set: EP4 flipr functional assay. The following applies: read-out: EP4 data filpr EC50. In kind it is cell-based.
From the text: as §1

Data set [5] deals with T1, EP2. Kind of data set: EP2 flipr functional assay. In kind it is cell-based.
From the text: as §1

Data set [6] has as its system normotensive dogs. The data set can be described thus: Ocular surface hyperemia in normotensive dogs. Details: scale not given here. The class given is in vivo. From the text: (§2) U.S. Pat. No. 7,091,231 describes the methods used for these in vivo tests.
Data set [7] concerns normotensive dogs. Kind of data set: Intraocular pressure in normotensive dogs. The class given is in vivo. The following applies: once daily for 5 days.
From the text: as §2

A further data set has as its target T4, hTP (Homo sapiens, UniProt P21731).
T4 sequence (P21731 1-343): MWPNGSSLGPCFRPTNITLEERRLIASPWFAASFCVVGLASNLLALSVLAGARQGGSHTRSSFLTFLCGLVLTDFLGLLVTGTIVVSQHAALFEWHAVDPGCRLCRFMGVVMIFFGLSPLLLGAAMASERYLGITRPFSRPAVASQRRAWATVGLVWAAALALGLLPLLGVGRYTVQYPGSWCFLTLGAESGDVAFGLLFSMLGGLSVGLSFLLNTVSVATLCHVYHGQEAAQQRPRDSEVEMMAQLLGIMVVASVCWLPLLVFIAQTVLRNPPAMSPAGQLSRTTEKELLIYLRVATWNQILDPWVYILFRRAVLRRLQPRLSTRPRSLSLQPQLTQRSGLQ
The data set can be described thus: Other receptors functional EC50: hTP. In kind it is cell-based.
From the text: as §1

The next data set deals with T5, hDP (Homo sapiens, UniProt Q13258).
T5 sequence (Q13258 1-359): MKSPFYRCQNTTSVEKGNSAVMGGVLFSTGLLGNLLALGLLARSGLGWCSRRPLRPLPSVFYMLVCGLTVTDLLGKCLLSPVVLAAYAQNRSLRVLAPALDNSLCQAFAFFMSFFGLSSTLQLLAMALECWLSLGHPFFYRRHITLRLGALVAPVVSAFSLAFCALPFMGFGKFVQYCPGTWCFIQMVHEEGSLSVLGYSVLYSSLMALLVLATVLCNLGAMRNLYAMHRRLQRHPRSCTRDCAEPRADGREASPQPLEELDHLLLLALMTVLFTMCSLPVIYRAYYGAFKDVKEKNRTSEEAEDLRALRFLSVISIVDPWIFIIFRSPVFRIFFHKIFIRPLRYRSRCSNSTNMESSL
Kind of data set: Other receptors functional EC50: hDP. The class given is cell-based.
From the text: as §1

Where [8] appears, read: 0.001%, once daily for 5 days, at 50 h.

T1 sequence (P43116 whole entry): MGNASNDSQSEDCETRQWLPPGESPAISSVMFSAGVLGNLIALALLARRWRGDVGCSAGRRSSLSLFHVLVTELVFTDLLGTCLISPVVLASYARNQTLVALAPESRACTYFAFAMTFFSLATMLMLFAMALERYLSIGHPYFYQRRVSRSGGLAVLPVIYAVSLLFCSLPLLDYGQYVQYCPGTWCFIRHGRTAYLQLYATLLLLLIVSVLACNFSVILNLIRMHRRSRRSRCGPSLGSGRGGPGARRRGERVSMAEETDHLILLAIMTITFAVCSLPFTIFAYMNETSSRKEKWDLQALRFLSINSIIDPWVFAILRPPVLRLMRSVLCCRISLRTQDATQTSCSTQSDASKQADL
T2 sequence (P35408 whole entry): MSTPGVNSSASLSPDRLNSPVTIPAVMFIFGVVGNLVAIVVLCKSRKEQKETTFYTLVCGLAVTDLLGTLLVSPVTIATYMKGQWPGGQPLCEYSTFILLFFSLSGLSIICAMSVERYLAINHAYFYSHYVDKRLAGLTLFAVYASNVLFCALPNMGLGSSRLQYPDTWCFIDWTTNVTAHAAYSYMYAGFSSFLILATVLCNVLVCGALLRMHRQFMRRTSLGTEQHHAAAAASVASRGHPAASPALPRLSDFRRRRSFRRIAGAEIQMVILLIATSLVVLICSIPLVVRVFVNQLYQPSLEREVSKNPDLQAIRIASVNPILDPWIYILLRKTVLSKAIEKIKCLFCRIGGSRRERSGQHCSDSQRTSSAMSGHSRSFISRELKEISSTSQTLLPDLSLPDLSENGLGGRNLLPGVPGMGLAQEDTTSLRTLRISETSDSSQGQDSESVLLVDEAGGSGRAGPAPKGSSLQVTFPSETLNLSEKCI

What is called Ki is a measure of affinity in units of concentration, obtained from inhibition or displacement. By EC50 is commonly meant the concentration that produces a half-maximal response. Regarding `O=C(O)c1ccc(CCC[C@@H]2[C@@H](CNc3cc(Cl)cc(Cl)c3)[C@H](O)C[C@H]2Cl)s1` [drawing 6], the Ki on EP2 [1] was 1.5 nM; on EP4 [3] it was 678 nM. The EC50 on EP2 [2] came out at 0.09 nM; on hEP3A, 7140 nM; at EP4 [4] it was 5580 nM; at EP2 [5], 20 nM.

Consider `O=C(O)CCCCCC[C@@H]1[C@@H](CCc2cc(Cl)cc(Cl)c2)[C@H](O)C[C@H]1Cl` [7-{(1R,2R,3R,5R)-5-Chloro-2-[2-(3,5-dichloro-phenyl)-ethyl]-3-hydroxy-cyclopentyl}-heptanoic acid], for which the “maximum ocular surface hyperemia (OSH) score” value in the data set with normotensive dogs [6] (0.01%, once daily for 5 days, at 74 h) is given as 0.8.

For `O=C(O)c1ccc(CCC[C@@H]2[C@@H](C[S+]([O-])c3cc(Cl)cc(Cl)c3)[C@H](O)C[C@H]2Cl)s1` (stereo partly drawn) [5-(3-((1R,2R,3R,5R)-5-chloro-2-((3,5-dichlorophenylsulfinyl)methyl)-3-hydroxycyclopentyl)propyl)thiophene-2-carboxylic acid], the “maximum intraocular pressure (IOP) decrease from baseline” value in the data set with normotensive dogs [7] (0.005%, at 4 h) was 3.1 mmHg. Further, the inhibition in vivo at 0.005 % in the data set with normotensive dogs [7] (Canis lupus familiaris, 0.005%, at 4 h, read-out: maximum intraocular pressure (IOP) decrease from baseline) worked out at 21%. Further, the “maximum ocular surface hyperemia (OSH) score” value in the data set on normotensive dogs [6] (0.005%, once daily for 5 days, at 30 h) was 1.4.

As to `O=C(O)c1ccc(CCC[C@@H]2[C@@H](CSc3cc(F)cc(F)c3)[C@H](O)C[C@H]2Cl)s1`, the EC50 on hTP was 5310 nM; at hDP, 9690 nM.

As to `O=C(O)c1ccc(CCC[C@@H]2[C@@H](CSc3cc(Cl)cc(Cl)c3)[C@H](O)C[C@H]2Cl)s1` [5-(3-((1R,2R,3R,5R)-5-chloro-2-((3,5-dichlorophenylthio)methyl)-3-hydroxycyclopentyl)propyl)-thiophene-2-carboxylic acid], in the data set with normotensive dogs [7] (0.01%, at 6 h), the “maximum intraocular pressure (IOP) decrease from baseline” value was determined as 6.3 mmHg. In addition, the inhibition in vivo at 0.01 % with normotensive dogs [7] (Canis lupus familiaris, 0.01%, at 6 h, read-out: maximum intraocular pressure (IOP) decrease from baseline) turned out to be 35%. Also, the “maximum ocular surface hyperemia (OSH) score” value in the data set on normotensive dogs [6] (0.01%, once daily for 5 days, at 52 h) is given as 1.7.

Take `O=C(O)c1ccc(CCC[C@@H]2[C@@H](CCc3cc(Cl)cc(CO)c3)[C@H](O)C[C@H]2Cl)s1` [11c, 5-(3-((1R,2R,3R,5R)-5-chloro-2-(3-chloro-5-(hydroxymethyl)phenethyl)-3-hydroxycyclopentyl)propyl)thiophene-2-carboxylic acid]: the “maximum ocular surface hyperemia (OSH) score” value in the data set on normotensive dogs [6] (setting [8]) was found to be 0.8.

Take `O=C(O)c1ccc(CCC[C@@H]2[C@@H](C[S+]([O-])c3cc(Cl)cc(Cl)c3)[C@H](O)C[C@H]2Cl)s1` (some centres unmarked) [drawing 8]: the Ki at EP4 [3] is more than 1000 nM.

On to `O=C(O)c1ccc(CCC[C@@H]2[C@@H](CCc3cc(Cl)nc(Cl)c3)[C@H](O)C[C@H]2Cl)s1` [11b, 5-(3-((1R,2R,3R,5R)-5-chloro-2-(2-(2,6-dichloropyridin-4-yl)ethyl)-3-hydroxycyclopentyl)propyl)-thiophene-2-carboxylic acid], for which the “maximum ocular surface hyperemia (OSH) score” value with normotensive dogs [6] (0.001%, once daily for 4 days, at 74 h) is reported as 1.9.

Regarding `CC(C)OC(=O)c1ccc(CCC[C@@H]2[C@@H](CCc3cc(Cl)cc(CO)c3)[C@H](O)C[C@H]2Cl)s1` [Isopropyl 5-(3-((1R,2R,3R,5R)-5-chloro-2-(3-chloro-5-(hydroxymethyl)phenethyl)-3-hydroxycyclopentyl)propyl)thiophene-2-carboxylate], the “maximum ocular surface hyperemia (OSH) score” value in the data set with normotensive dogs [6] (0.001%, once daily for 5 days, at 26 h) is reported as 0.9.

With `O=C(O)c1ccc(CCC[C@@H]2[C@@H](CNc3cc(Cl)cc(Cl)c3)[C@H](O)C[C@H]2Cl)s1` [5-(3-((1R,2S,3R,5R)-5-chloro-2-((3,5-dichlorophenylamino)methyl)-3-hydroxycyclopentyl)propyl)thiophene-2-carboxylic acid], in the data set on normotensive dogs [7] (0.001%, at 6 h), the “maximum intraocular pressure (IOP) decrease from baseline” value was determined as 2.6 mmHg. In addition, the inhibition in vivo at 0.001 % with normotensive dogs [7] (Canis lupus familiaris, 0.001%, at 6 h, read-out: maximum intraocular pressure (IOP) decrease from baseline) was 18%. For the same compound, the “maximum ocular surface hyperemia (OSH) score” value in the data set on normotensive dogs [6] (0.001%, once daily for 5 days, at 76 h) stood at 1.5.

For the compound `CCN(CC)CCOC(=O)c1ccc(CCC[C@@H]2[C@@H](CCc3cc(Cl)cc(Cl)c3)[C@H](O)C[C@H]2Cl)s1` [2-(Diethylamino)ethyl 5-(3-((1R,2R,3R,5R)-5-chloro-2-(3,5-dichlorophenethyl)-3-hydroxycyclopentyl)propyl)thiophene-2-carboxylate hydrochloride], the “maximum intraocular pressure (IOP) decrease from baseline” value in the data set with normotensive dogs [7] (0.0005%, at 28 h) was 5.3 mmHg. The inhibition in vivo at 0.0005 % in the data set with normotensive dogs [7] (Canis lupus familiaris, 0.0005%, at 28 h, read-out: maximum intraocular pressure (IOP) decrease from baseline) came to 33%. In the data set with normotensive dogs [6] (0.0005%, once daily for 5 days, at 98 h), the “maximum ocular surface hyperemia (OSH) score” value is 1.25.

For the compound `O=C(O)c1ccc(CCC[C@@H]2[C@@H](CCc3cc(Cl)cc(Cl)c3)[C@H](O)C[C@H]2Cl)s1` [5-(3-((1R,2R,3R,5R)-5-chloro-2-(3,5-dichlorophenethyl)-3-hydroxycyclopentyl)propyl)thiophene-2-carboxylic acid], the “maximum ocular surface hyperemia (OSH) score” value in the data set with normotensive dogs [6] (0.0001%, once daily for 5 days, at 74 h) amounted to 0.8; in the data set on normotensive dogs [6] (0.0005%, once daily for 5 days, at 50 h), 1.75; with normotensive dogs [6] (setting [8]) it was 1.8; in the data set on normotensive dogs [6] (0.01%, once daily for 5 days, at 26 h), 2.5.

`CCN(CC)CCOC(=O)c1ccc(CCC[C@@H]2[C@@H](CCc3cc(Cl)cc(Cl)c3)[C@H](O)C[C@H]2Cl)s1` [2-(Diethylamino)ethyl 5-(3-((1R,2R,3R,5R)-5-chloro-2-(3,5-dichlorophenethyl)-3-hydroxycyclopentyl)propyl)thiophene-2-carboxylate]: the “maximum intraocular pressure (IOP) decrease from baseline” value with normotensive dogs [7] (0.001%, at 78 h) is given as 6.9 mmHg. The inhibition in vivo at 0.001 % with normotensive dogs [7] (Canis lupus familiaris, 0.001%, at 78 h, read-out: maximum intraocular pressure (IOP) decrease from baseline) was 47%. Besides, the “maximum ocular surface hyperemia (OSH) score” value with normotensive dogs [6] (0.001%, once daily for 5 days, at 28 h) amounted to 1.8.
